In patent US9132171B2, “Test of insulin as a drug to reduce restenosis of vessels” (WISCONSIN ALUMNI RESEARCH FOUNDATION, priority 2012, dated 2015):

Legend:
[1] = tested on: IGF-2BP3; assay: mRNA expression array analysis of TGFbeta/Smad3-treated SMCs; type: cell-based, mouse; conditions: data not shown
Source text: Cell Culture. Aortic SMCs were isolated from mouse (MOVAS) aortas. Rat aortic fibroblasts were isolated as previously described by Pagano et al., Localization of a constitutively active, phagocyte-like NADPH oxidase in rabbit aortic adventitia: enhancement by angiotensin II, Proc. Natl. Acad. Sci. USA. December 23; 94(26):14483-8 (1997), incorporated herein by reference as if set forth in its entirety, and used to visualize collagen secretion into growth media. These cells were transfected with green fluorescent protein (GFP) and SMAD3 adenoviral vectors expressing Smad3 (AdSmad3) and GFP (AdGFP), constructed as previously described in Ryer, E. et al., Arterioscler Thromb Vasc Biol. 26:780-786, 2006, incorporated herein by reference as if set forth in its entirety. Adenoviral vector expressing GFP was used as a control (AdGFP).
CTGF and IGF-2 are present in the CM derived from SMCs that overexpress Smad3 (FIGS. 2A and B respectively).

[2] = tested on: left carotid artery balloon angioplasty; assay: Balloon injury model with morphometric analysis; type: in vivo, rat; conditions: periadventitial in Pluronic gel, 14 days after injury, relative to non-treated vessels
Protocol: In vivo studies conformed to the Guide for the Care and Use of Laboratory Animals published by the US National Institute of Health. Approval from the Institutional Animal Care and Use Committee was granted. Male Sprague-Dawley rats underwent angioplasty of the left common carotid artery. Periadventitial Insulin (1 microgram) along with CTGF (100 nanogram) suspended in 200 μL of Pluronic® gel was applied to the adventitial surface of the artery immediately after injury. Control animals were subjected to application of Pluronic® gel only. Fourteen days after injury, carotid was harvested utilizing perfusion fixation at physiological pressure of 100 mmHg.
Paraffin-embedded arteries were cut into 5 μm sections for analysis. Morphometric analysis was carried out on arteries stained with Haematoxilin and Eosin. For each animal, 10 sections were selected for analysis using digital software for Dell PC Computers (ImageJ and Photoshop V.7). The areas encompassed by the lumen surface (luminal area), […], internal elastic lamina-lumen surface (neointimal area), EEL-internal elastic lamina (medial area) and EEL length were measured. For evaluation of remodeling index, the EEL was measured and compared with that of controls. […]

[3] = tested on: vessels; conditions: in vivo; cited from earlier work
[4] = tested on: rat aortic fibroblasts; assay: Collagen III and I in culture medium of treated rat aortic fibroblasts (direct ELISA, Western blot); type: cell-based; conditions: CTGF, insulin (1 ug) or both, 72 hours
Protocol: Collagen produced by rat fibroblasts was measured using Western blotting. […] GFP (control) and Smad3-transfected SMCs were starved for 24 hours in 0.5% serum DMEM medium and then treated with TGFbetal (5 ng/ml) for 48 hours. […] Thirty micrograms of proteins from each sample were separated on 10% SDS-PAGE gels. Protein samples were transferred to a polyvinylidene fluoride (PVDF) membrane. Rabbit anti-collagen type III (1:1000) and I (1:1000) (Fitzgerald) and goat-anti Rabbit (1:5000) were used as primary and secondary antibodies respectively to confirm immunoblotting. Conditioned medium was blotted parallel to unconditioned culture medium to rule out the possibility of presence of collagen in the former. Immunoblotting was carried out to visualize collagen I and III in culture medium after treating rat fibroblasts with CTGF (0.1 μg/ml) and IGF-2 (0.3 μg/ml) for 72 hours. These experiments were replicated using insulin in place of IGF-2. ELISA was used to detect the presence of IGF-2 and CTGF in the conditioned medium using the primary antibodies from Abcam® according to manufacturer's instructions. Fitzgerald Collagen I and III primary antibodies were used to visualize changes in collagen production in the fibroblast culture medium following treatment with CTGF and IGF small interfering RNA-(siRNA) transfected conditioned medium for 72 hours. […]

[5] = tested on: Smad3-expressing smooth muscle cells (SMCs); assay: MTT cell proliferation assay; type: cell-based, rat; conditions: insulin 1 μg/ml, TGF-beta 5 ng/ml, 96 hours
Protocol: FIG. 7 illustrates a MTT proliferation assay of Smad3-expressing smooth muscle cells (SMCs) at 96 hours after treatment with TGF-beta (5 ng/ml) or TGF beta (5 ng/ml)+Insulin (1 μg/ml).
MTT cell proliferation assay was performed to visualize the effect of insulin on SMC proliferation. Smad3-transfected rat SMCs were stimulated with TGF-beta. Cells were then treated with 1 μg of insulin and the MTT assay was performed following 96 hours of treatment.
To determine whether insulin is sufficient for decreasing TGF-beta and Smad3-stimulated SMC proliferation, an MTT proliferation assay was carried out. Insulin abolished the TGF-beta-stimulated proliferation of Smad3-expressing SMCs (FIG. 7).

[6] = tested on: balloon-injured vessel; assay: Collagen I/III immunostaining of balloon-injured artery after perivascular CTGF; type: in vivo, rat; conditions: CTGF 80 ng in 200 microliters Pluronic gel, 14 days after carotid artery injury
Source text: FIG. 5 illustrates collagen subtype induction by CTGF in vivo. Arteries were injured and treated with recombinant CTGF as described in FIG. 2. Arterial sections, harvested at 14 days post-injury, were subsequently immunostained for either Type I (COLI) or Type III collagen (COLIII). (A) Representative tissue sections from solvent-(CTRL) or CTGF-treated arteries (CTGF). Negative controls were established by staining sections without primary antibodies to collagen. 100X (B) Semi-quantification of adventitial COLI or COLIII was carried out, and the effects of CTGF on COLI or COLIII were expressed as fold induction; n=6, *p<0.05 as compared to COLIII. […] FIG. 5B depicts CTGF-mediated differential production of collagens III and I when CTGF was applied around a balloon-injured vessel.

[7] = tested on: balloon-injured blood vessels; conditions: CTGF applied to balloon-injured vessels; cited from earlier work

TGFbeta: TGF-beta (5 ng/ml) used to treat Smad3-transfected SMCs
IGF-2BP3 increase ([1]; 6 hours treatment): 2.8 folds
IGF-2BP3 increase ([1]; 48 hours treatment): 2.4 folds

insulin
Increase in lumen size [2]: 29.24%
Neo-intimal growth [2]: decreased neo-intimal growth
Cell migration into the intima [3]: inhibit cell migration into the intima
Intima cell proliferation or apoptosis [3]: does not decrease
Re-endothelialization in vessels [3]: increase re-endothelialization
Collagen III production in rat aortic fibroblasts [4]: some increase in collagen III
TGF-beta-stimulated proliferation of Smad3-expressing SMCs [5]: abolished

B1: Connective Tissue Growth Factor (protein, UniProt P29279 27-349, looked up)
CCN family member 2: QNCSGPCRCPDEPAPRCPAGVSLVLDGCGCCRVCAKQLGELCTERDPCDPHKGLFCHFGSPANRKIGVCTAKDGAPCIFGGTVYRSGESFQSSCKYQCTCLDGAVGCMPLCSMDVRLPSPDCPFPRRVKLPGKCCEEWVCDEPKDQTVVGPALAAYRLEDTFGPDPTMIRANCLVQTTEWSACSKTCGMGISTRVTNDNASCRLEKQSRLCMVRPCEADLEENIKKGKKCIRTPKISKPIKFELSGCTSMKTYRAKFCGVCTDGRCCTPHRTTTLPVEFKCPDGEVMKKNMMFIKTCACHYNCPGDNDIFESLYYRKMYGDMA
notes: soluble factor secreted by blood vessel adventitial cells
Adventitial collagen III versus collagen I [6]: collagen III increased significantly more as compared to collagen I
Lumen remodeling [7]: expansively remodeled
Collagen III production in rat aortic fibroblasts [4]: some increase in collagen III
